Assay results as given in patent US20090270431A1, “Cyclopentenol Nucleoside Compounds Intermediates for their Synthesis and Methods of Treating Viral Infections” (THE UNIVERSITY OF GEORGIA RESEARCH FOUNDATION, priority 2005, published 2009).
“And” between values parts separate entries of the source, which are not always exact repeats. Equal entries are not always repeated. Where two headings read alike, the source gives them in different places.

What was measured:
[1] = system: Cowpox; test: microbe, parasite or virus in culture; type: cell-based, cowpox virus; conditions: Cowpox; CPE; HFF Cells (Table 3); read-out: EC50
[2] = system: Vaccinia; test: microbe, parasite or virus in culture; type: cell-based, vaccinia virus; conditions: VV; CPE; HFF Cells (Table 3); read-out: EC50
[3] = system: Hepatitis B Virus; test: in vitro anti-HBV activity, VIR (extracellular virion HBV DNA); type: cell-based; conditions: HBV; VIR; Huh7 ET (Table 3)
Method: In the first biological experiment, a number of 7-deazaneplanocin compounds were tested in vitro to determine activity against hepatitis B virus (HBV).

[4] = system: SARS; test: organism not typed; type: cell-based; conditions: SARS, Vero 76, read-out: EC50
[5] = system: Flu A (H1N1); test: microbe, parasite or virus in culture; type: cell-based; conditions: MDCK, read-out: EC50
[6] = system: Flu A (H3N2); test: microbe, parasite or virus in culture; type: cell-based; conditions: Flu A (H3N2), MDCK, read-out: EC50
[7] = system: Flu A (H5N1); test: microbe, parasite or virus in culture; type: cell-based; conditions: Flu A (H5N1), MDCK, read-out: EC50
[8] = system: Flu B; type: cell-based; conditions: MDCK
[9] = system: Yellow Fever; test: organism not typed; type: cell-based; conditions: YF, Vero, read-out: EC50
[10] = system: Tacaribe; type: cell-based; conditions: Vero 76
[11] = system: Dengue; test: antiviral assay, Dengue in Vero; type: cell-based
[12] = system: VEE; type: cell-based
[13] = system: RVF; type: cell-based

**Q.** With `Nc1nccc2ncn([C@@H]3C=C(CO)[C@@H](O)[C@H]3O)c12` [Compound N7-3-DNPA] as the compound, how does the EC50 [1] read?
**A.** 273 µM

**Q.** And the EC50 [2]?
**A.** > 300 µM

**Q.** What about the EC50 [3] of the same compound?
**A.** > 10 µM

**Q.** And the EC50 ([4]; NR (Neutral Red))?
**A.** > 100 µM

**Q.** What about the EC50 ([4]; Visual) of the same compound?
**A.** > 100 µM

**Q.** And the EC50 ([5]; NR)?
**A.** > 32 µM

**Q.** What about the EC50 ([5]; Visual) of the same compound?
**A.** > 32 µM

**Q.** And the EC50 ([6]; NR)?
**A.** > 32 µM

**Q.** What about the EC50 ([6]; Visual) of the same compound?
**A.** > 32 µM

**Q.** What about the EC50 ([7]; NR) of the same compound?
**A.** 29 µM

**Q.** And the EC50 ([7]; Visual)?
**A.** 32 µM

**Q.** And the EC50 ([8]; NR)?
**A.** 34 µM

**Q.** What about the EC50 ([8]; Visual) of the same compound?
**A.** 8 µM

**Q.** What about the EC50 ([9]; NR) of the same compound?
**A.** > 100 µM

**Q.** And the EC50 ([9]; Visual)?
**A.** > 100 µM

**Q.** What about the EC50 ([10]; NR) of the same compound?
**A.** 85 µM

**Q.** And the EC50 ([10]; Visual)?
**A.** 52 µM

**Q.** And the EC50 ([11]; NR)?
**A.** > 100 µM

**Q.** And the EC50 ([11]; Visual)?
**A.** > 100 µM

**Q.** And the EC50 [12]?
**A.** 84.6 µM and > 100 µM

**Q.** And the EC50 [13]?
**A.** > 100 µM
